Measured values as given in patent publication US20240342292A1, “Compounds for the Degradation of EGFR Kinase” (BeiGene Switzerland GmbH, priority 2021, published 2024).

Key:
Del19/T790M/C797S EGFR = assay: EGFR degradation HTRF assay in H1975-clone #28 (DTC) cells; format: cell-based; settings: H1975 # 28 DTC (Del19/T790M/C797S), 16h treatment; for DC50: HTRF; for Dmax (%): maximum percentage of degradation
How it was run: (§1)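 Each homozygous H1975 clone was dosed for 16 h at 37 °C with an 8-dose, 5-fold series (top 10 uM, 0.2% DMSO). An HTRF antibody pair then measured EGFR in lysates, and a sigmoidal fit of percent inhibition gave DC50.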

L858R/T790M/C797S EGFR = target: T1, L858R/T790M/C797S EGFR (Homo sapiens, UniProt P00533, C797S/L858R/T790M); assay: EGFR degradation HTRF assay in H1975-clone #25 (LTC) cells; format: cell-based; settings: 16h treatment; for DC50: H1975 # 25-LTC (L858R/T790M/C797S), HTRF; for Dmax: NCI-H1975, H1975 # 25-LTC (L858R/T790M/C797S), maximum percentage of degradation
T1 construct: expressed in transfected cells; host or cells: H1975 clone #25 (lentiviral over-expression, endogenous EGFR knocked out by sgRNA)
How it was run: as §1

T1 sequence (P00533 25-1210 T790M/C797S/L858R): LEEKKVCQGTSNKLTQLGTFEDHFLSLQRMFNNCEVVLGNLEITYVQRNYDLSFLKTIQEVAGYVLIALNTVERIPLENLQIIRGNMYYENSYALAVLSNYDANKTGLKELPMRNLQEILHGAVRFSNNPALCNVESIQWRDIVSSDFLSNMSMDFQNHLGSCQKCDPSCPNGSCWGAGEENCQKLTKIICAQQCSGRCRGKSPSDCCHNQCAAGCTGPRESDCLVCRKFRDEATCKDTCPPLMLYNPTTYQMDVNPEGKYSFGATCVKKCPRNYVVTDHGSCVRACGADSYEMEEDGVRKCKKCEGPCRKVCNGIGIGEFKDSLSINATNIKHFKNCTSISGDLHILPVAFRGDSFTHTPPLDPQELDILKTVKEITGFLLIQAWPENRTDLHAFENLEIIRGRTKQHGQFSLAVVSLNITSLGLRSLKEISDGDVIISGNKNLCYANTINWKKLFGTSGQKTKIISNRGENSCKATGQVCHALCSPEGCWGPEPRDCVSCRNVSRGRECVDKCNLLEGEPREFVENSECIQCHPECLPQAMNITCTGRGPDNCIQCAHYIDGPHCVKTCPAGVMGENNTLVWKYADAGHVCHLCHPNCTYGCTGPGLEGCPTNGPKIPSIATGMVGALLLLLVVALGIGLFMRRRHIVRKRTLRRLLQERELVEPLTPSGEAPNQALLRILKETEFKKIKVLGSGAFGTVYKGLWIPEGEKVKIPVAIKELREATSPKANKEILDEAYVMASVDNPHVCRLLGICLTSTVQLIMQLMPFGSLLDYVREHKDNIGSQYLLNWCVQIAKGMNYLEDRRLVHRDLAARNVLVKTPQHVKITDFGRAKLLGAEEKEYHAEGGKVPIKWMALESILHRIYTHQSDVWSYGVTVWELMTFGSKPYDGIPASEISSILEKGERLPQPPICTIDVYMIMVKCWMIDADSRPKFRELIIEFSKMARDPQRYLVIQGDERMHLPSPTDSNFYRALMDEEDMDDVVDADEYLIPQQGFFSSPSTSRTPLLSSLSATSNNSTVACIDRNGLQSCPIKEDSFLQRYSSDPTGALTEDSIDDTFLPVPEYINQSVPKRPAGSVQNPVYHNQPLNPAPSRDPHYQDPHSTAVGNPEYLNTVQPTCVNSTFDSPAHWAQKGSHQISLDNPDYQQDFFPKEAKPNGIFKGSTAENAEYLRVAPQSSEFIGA

| DC50 (Del19/T790M/C797S EGFR) | DC50 (L858R/T790M/C797S EGFR) | Dmax (L858R/T790M/C797S EGFR) | Structure (SMILES) | Dmax (%) (Del19/T790M/C797S EGFR) |
| --- | --- | --- | --- | --- |
| 0.997 nM | 1.56 nM | 86.3% | Cc1cc2cc(n1)-c1cnn(C)c1OCCC[C@@H](C)CN1/C(=N/C2=O)Nc2ccc(C(=O)N(C)C3C[C@H]4CN(CCc5cc(F)c([C@H]6CCC(=O)NC6=O)c(F)c5)C[C@@H]4C3)cc21 [Example 293, (R,E)-N—((3aR,6aR)-2-(4-((R)-2,6-dioxopiperidin-3-yl)-3,5-difluorophenethyl)octahydrocyclopenta[c]pyrrol-5-yl)-N,1^1,2^6,7-tetramethyl-3-oxo-5^2,5^1-dihydro-1^1H,5^1H-11-oxa-4-aza-5(2,1)-benzo[d]imidazola-2(2,4)-pyridina-1(4,5)-pyrazolacycloundecaphane-5^6-carboxamide] | 75.49% |
| 0.313 nM | 0.478 nM | 89.5% | Cc1cc2cc(n1)-c1cnn(C)c1OCCC[C@@H](C)CN1/C(=N/C2=O)Nc2ccc(C(=O)N3CC[C@@H](N(C)CCc4cc(F)c([C@H]5CCC(=O)NC5=O)c(F)c4)C3)cc21 [Example 295, (R)-3-(2,6-difluoro-4-(2-(menthyl((R)-1-((R,E)-1^1,2^6,7-trimethyl-3-oxo-5^2,5^3-dihydro-1^1H,5^1H-11-oxa-4-aza-5(2,1)-benzo[d]imidazola-2(2,4)-pyridina-1(4,5)-pyrazolacycloundecaphane-5^6-carbonyl)pyrrolidin-3-yl)amino)ethyl)phenyl)piperidine-2,6-dione] | 78.39% |
| 0.842 nM | 0.707 nM | 84.8% | Cc1cc2cc(n1)-c1cnn(C)c1OCCC[C@@H](C)CN1/C(=N/C2=O)Nc2ccc(C(=O)N3CC[C@@H](NCCc4cc(F)c([C@H]5CCC(=O)NC5=O)c(F)c4)C3)cc21 [Example 296, (R)-3-(2,6-difluoro-4-(2-(((R)-1-((R,E)-1^1,2^6,7-trimethyl-3-oxo-5^2,5^3-dihydro-1^1H,5^1H-11-oxa-4-aza-5(2,1)-benzo[d]imidazola-2(2,4)-pyridina-1(4,5)-pyrazolacycloundecaphane-5′-carbonyl)pyrrolidin-3-yl)amino)ethyl)phenyl)piperidine-2,6-dione] | 51.36% |
| 0.292 nM | 0.432 nM | 91.7% | Cc1cc2cc(n1)-c1cnn(C)c1OCCC[C@@H](C)CN1/C(=N/C2=O)Nc2ccc(C(=O)N3CC[C@H](N(C)CCc4cc(F)c([C@H]5CCC(=O)NC5=O)c(F)c4)C3)cc21 [Example 297, (R)-3-(2,6-difluoro-4-(2-(methyl((S)-1-((R,E)-1^1,2^6,7-trimethyl-3-oxo-5^2,5^3-dihydro-1^1H,5^1H-11-oxa-4-aza-5(2,1)-benzo[d]imidazola-2(2,4)-pyridina-1(4,5)-pyrazolacycloundecaphane-5^6-carbonyl)pyrrolidin-3-yl)amino)ethyl)phenyl)piperidine-2,6-dione] | 79.64% |
| 1.2 nM | 1.14 nM | 90.1% | Cc1cc2cc(n1)-c1cnn(C)c1OCCC[C@@H](C)CN1/C(=N/C2=O)Nc2ccc(C(=O)N3CC[C@H](NCCc4cc(F)c([C@H]5CCC(=O)NC5=O)c(F)c4)C3)cc21 [Example 298, (R)-3-(2,6-difluoro-4-(2-(((S)-1-((R,E)-1^1,2^6,7-trimethyl-3-oxo-5^2,5^3-dihydro-1^1H,5^1H-11-oxa-4-aza-5(2,1)-benzo[d]imidazola-2(2,4)-pyridina-1(4,5)-pyrazolacycloundecaphane-5^6-carbonyl)pyrrolidin-3-yl)amino)ethyl)phenyl)piperidine-2,6-dione] | 66.58% |
| 0.611 nM | 0.468 nM | 86.9% | Cc1cc2cc(n1)-c1cnn(C)c1OCCC[C@@H](C)CN1/C(=N/C2=O)Nc2ccc(C(=O)N3CCC(N(C)CCc4cc(F)c([C@H]5CCC(=O)NC5=O)c(F)c4)CC3)cc21 [Example 299, (R)-3-(2,6-difluoro-4-(2-(methyl(1-((R,E)-1^1,2^6,7-trimethyl-3-oxo-5^2,5^3-dihydro-1^1H,5^1H-11-oxa-4-aza-5(2,1)-benzo[d]imidazola-2(2,4)-pyridina-1(4,5)-pyrazolacycloundecaphane-5^6-carbonyl)piperidin-4-yl)amino)ethyl)phenyl)piperidine-2,6-dione] | 66.17% |
| 1.48 nM | 0.653 nM | 88.2% | Cc1cc2cc(n1)-c1cnn(C)c1OCCC[C@@H](C)CN1/C(=N/C2=O)Nc2ccc(C(=O)N3CCC(NCCc4cc(F)c([C@H]5CCC(=O)NC5=O)c(F)c4)CC3)cc21 [Example 300, (R)-3-(2,6-difluoro-4-(2-((1-((R,E)-1^1,2^6,7-trimethyl-3-oxo-5^2,5′-dihydro-1^1H,5^1H-11-oxa-4-aza-5(2,1)-benzo[d]imidazola-2(2,4)-pyridina-1(4,5)-pyrazolacycloundecaphane-5^6-carbonyl)piperidin-4-yl)amino)ethyl)phenyl)piperidine-2,6-dione] | 73.74% |
| 0.246 nM | 0.582 nM | 80.9% | Cc1cc2cc(n1)-c1cnn(C)c1OCCC[C@@H](C)CN1/C(=N/C2=O)Nc2ccc(C(=O)N3CCN(C4CCN(c5cc(F)c([C@H]6CCC(=O)NC6=O)c(F)c5)CC4)CC3)cc21 [Example 303, (R)-3-(2,6-difluoro-4-(4-(4-((R,E)-1^1,2^6,7-trimethyl-3-oxo-5^2,5^3-dihydro-1^1H,5^1H-11-oxa-4-aza-5(2,1)-benzo[d]imidazola-2(2,4)-pyridina-1(4,5)-pyrazolacycloundecaphane-5^6-carbonyl)piperazin-1-yl)piperidin-1-yl)phenyl)piperidine-2,6-dione] | 63.64% |
| 0.595 nM | 0.61 nM | 79.9% | Cc1cc2cc(n1)-c1cnn(C)c1OCCC[C@@H](C)CN1/C(=N/C2=O)Nc2ccc(C(=O)N3CC[C@H]4CN(CCc5cc(F)c([C@H]6CCC(=O)NC6=O)c(F)c5)CC[C@H]43)cc21 [Example 304, (R)-3-(2,6-difluoro-4-(2-((3aS,7aR)-1-((R,E)-1^1,2^6,7-trimethyl-3-oxo-5^2,5^3-dihydro-1^1H,5^1H-11-oxa-4-aza-5(2,1)-benzo[d]imidazola-2(2,4)-pyridina-1(4,5)-pyrazolacycloundecaphane-5^6-carbonyl)octahydro-5H-pyrrolo[3,2-c]pyridin-5-yl)ethyl)phenyl)piperidine-2,6-dione] | 78.73% |
| 0.668 nM | 0.861 nM | 90.6% | Cc1cc2cc(n1)-c1cnn(C)c1OCCC[C@@H](C)CN1/C(=N/C2=O)Nc2ccc(C(=O)N3CC(NCCc4cc(F)c([C@H]5CCC(=O)NC5=O)c(F)c4)C3)cc21 [Example 305, (R)-3-(2,6-difluoro-4-(2-((1-((R,E)-1^1,2^6,7-trimethyl-3-oxo-5^2,5^3-dihydro-1^1H,5^1H-11-oxa-4-aza-5(2,1)-benzo[d]imidazola-2(2,4)-pyridina-1(4,5)-pyrazolacycloundecaphane-5^6-carbonyl)azetidin-3-yl)amino)ethyl)phenyl)piperidine-2,6-dione] | 80.65% |
